From the NIST ThermoML archive (doi:10.1021/je400679k)

Assay: xn = mol fraction of the nth substance listed
Settings: 101 kPa, Liquid, Vibrating tube method

CNCCCN [N-methyl-1,3-diaminopropane] + CN(CCO)CCO
mass density [kg/m3]
Settings | x1 = 0.1001 | x1 = 0.2003 | x1 = 0.2999 | x1 = 0.3997 | x1 = 0.5 | x1 = 0.5999 | x1 = 0.7001 | x1 = 0.8002 | x1 = 0.9 | x1 = 1
293.15 K | 1026.93 | 1012.7 | 997.588 | 981.393 | 964.134 | 944.646 | 923.928 | 900.759 | 876.717 | 851.605
303.15 K | 1019.31 | 1005.01 | 989.787 | 973.417 | 956.077 | 936.426 | 915.36 | 892.077 | 868.035 | 842.69
313.15 K | 1011.66 | 997.273 | 981.94 | 965.391 | 947.946 | 928.152 | 907.016 | 883.714 | 859.287 | 833.715
323.15 K | 1003.95 | 989.479 | 974.031 | 957.394 | 939.738 | 919.85 | 898.494 | 874.972 | 850.467 | 824.673
333.15 K | 996.181 | 981.607 | 966.033 | 949.272 | 931.432 | 911.414 | 889.941 | 866.238 | 841.566 | 815.559
343.15 K | 988.342 | 973.656 | 957.953 | 941.042 | 923.056 | 902.895 | 881.277 | 857.422 | 832.576 | 806.37
353.15 K | 980.415 | 965.631 | 949.783 | 932.732 | 914.593 | 894.29 | 872.517 | 848.523 | 823.509 | 797.093
363.15 K | 972.409 | 957.499 | 941.523 | 924.324 | 906.038 | 885.584 | 863.668 | 839.559 | 814.342 | 787.723

CNCCCN [N-methyl-1,3-diaminopropane] + O
mass density [kg/m3]
Settings | 283.15 K | 293.15 K | 303.15 K | 313.15 K | 323.15 K | 333.15 K | 343.15 K | 353.15 K | 363.15 K
x1 = 0.0051 | 998.237 | 996.63 | 993.985 | 990.476 | 986.217 | 981.304 | 975.769 | 969.7 | 963.045
x1 = 0.02 | 994.774 | 992.593 | 989.479 | 985.566 | 980.949 | 975.762 | 969.886 | 963.52 | 956.663
x1 = 0.04 | 992.84 | 989.571 | 985.557 | 980.873 | 975.589 | 969.758 | 963.394 | 956.509 | 949.281
x1 = 0.0599 | 991.664 | 987.189 | 982.161 | 976.614 | 970.587 | 964.115 | 957.198 | 949.885 | 942.172
x1 = 0.08 | 991.853 | 986.2 | 980.175 | 973.774 | 967.022 | 959.923 | 952.467 | 944.681 | 936.552
x1 = 0.1001 | 990.982 | 984.3 | 977.4 | 970.258 | 962.871 | 955.236 | 947.339 | 939.185 | 930.768
x1 = 0.1496 | 985.446 | 977.467 | 969.396 | 961.197 | 952.86 | 944.358 | 935.674 | 926.784 | 917.665
x1 = 0.2001 | 975.602 | 967.23 | 958.776 | 950.269 | 941.571 | 932.714 | 923.678 | 914.46 | 905.046
x1 = 0.2996 | 953.237 | 944.826 | 936.29 | 927.601 | 918.738 | 909.696 | 900.476 | 891.074 | 881.47
x1 = 0.4001 | 932.582 | 924.145 | 915.578 | 906.849 | 897.972 | 888.926 | 879.715 | 870.324 | 860.741
x1 = 0.4995 | 915.228 | 906.757 | 898.165 | 889.428 | 880.556 | 871.523 | 862.344 | 852.997 | 843.475
x1 = 0.5998 | 900.588 | 892.069 | 883.427 | 874.666 | 865.773 | 856.742 | 847.577 | 838.26 | 828.782
x1 = 0.6995 | 888.711 | 880.119 | 871.429 | 862.629 | 853.712 | 844.674 | 835.508 | 826.212 | 816.767
x1 = 0.7976 | 879.041 | 870.383 | 861.635 | 852.787 | 843.839 | 834.781 | 825.611 | 816.324 | 806.909
x1 = 0.901 | 869.652 | 860.902 | 852.078 | 843.17 | 834.181 | 825.1 | 815.925 | 806.659 | 797.262
x1 = 1 | 860.459 | 851.605 | 842.69 | 833.715 | 824.673 | 815.559 | 806.37 | 797.093 | 787.723

CNCCCN [N-methyl-1,3-diaminopropane] + CCN(CC)CCO
mass density [kg/m3]
Settings | x1 = 0.0999 | x1 = 0.2 | x1 = 0.3001 | x1 = 0.3997 | x1 = 0.5 | x1 = 0.5998 | x1 = 0.7001 | x1 = 0.8 | x1 = 0.8996 | x1 = 1
283.15 K | 892.458 | 890.44 | 888.023 | 885.377 | 882.338 | 878.902 | 874.969 | 870.601 | 866.062 | 860.459
293.15 K | 883.574 | 881.665 | 879.317 | 876.712 | 873.685 | 870.252 | 866.283 | 861.885 | 857.283 | 851.605
303.15 K | 874.574 | 872.785 | 870.463 | 867.945 | 864.94 | 861.519 | 857.522 | 853.099 | 848.439 | 842.69
313.15 K | 865.456 | 863.792 | 861.601 | 859.082 | 856.105 | 852.691 | 848.689 | 844.237 | 839.53 | 833.715
323.15 K | 856.219 | 854.692 | 852.583 | 850.12 | 847.171 | 843.77 | 839.765 | 835.289 | 830.547 | 824.673
333.15 K | 846.874 | 845.474 | 843.452 | 841.042 | 838.132 | 834.751 | 830.75 | 826.265 | 821.487 | 815.559
343.15 K | 837.416 | 836.147 | 834.206 | 831.853 | 828.978 | 825.629 | 821.629 | 817.142 | 812.342 | 806.37
353.15 K | 827.843 | 826.695 | 824.829 | 822.533 | 819.712 | 816.396 | 812.413 | 807.931 | 803.118 | 797.093
363.15 K | 818.122 | 817.116 | 815.306 | 813.074 | 810.325 | 807.063 | 803.095 | 798.611 | 793.772 | 787.723

CNCCCN [N-methyl-1,3-diaminopropane] + CN(C)CCO
mass density [kg/m3]
Settings | x1 = 0.0998 | x1 = 0.2 | x1 = 0.3001 | x1 = 0.4 | x1 = 0.4997 | x1 = 0.5993 | x1 = 0.6999 | x1 = 0.799 | x1 = 0.9 | x1 = 1
283.15 K | 893.869 | 892.03 | 889.578 | 886.723 | 883.31 | 879.367 | 875.276 | 871.091 | 866.659 | 860.459
293.15 K | 885.469 | 883.599 | 881.113 | 878.225 | 874.783 | 870.8 | 866.663 | 862.415 | 857.904 | 851.605
303.15 K | 876.968 | 875.071 | 872.551 | 869.634 | 866.166 | 862.148 | 857.97 | 853.666 | 849.087 | 842.69
313.15 K | 868.337 | 866.42 | 863.872 | 860.932 | 857.442 | 853.398 | 849.183 | 844.832 | 840.193 | 833.715
323.15 K | 859.574 | 857.639 | 855.069 | 852.112 | 848.606 | 844.543 | 840.3 | 835.912 | 831.218 | 824.673
333.15 K | 850.654 | 848.712 | 846.131 | 843.164 | 839.647 | 835.571 | 831.314 | 826.896 | 822.163 | 815.559
343.15 K | 841.562 | 839.622 | 837.042 | 834.073 | 830.555 | 826.477 | 822.212 | 817.78 | 813.022 | 806.37
353.15 K | 832.286 | 830.357 | 827.791 | 824.83 | 821.322 | 817.252 | 812.995 | 808.563 | 803.789 | 797.093
363.15 K | 822.801 | 820.903 | 818.354 | 815.413 | 811.93 | 807.876 | 803.636 | 799.198 | 794.432 | 787.723
